Consider 9 molecules from patent US20090203636A1, “Prevention and Treatment of Cancer and Other Diseases” (priority 2006, published 2009).

Converted amounts (≈) assume the structure as drawn. Structures can show the parent of a compound that is named as a salt. Some results are limits rather than exact numbers.

The subject of data set [1] is U-2 OS cells. Description: Telomere length (flow cytometry, PNA probe), cell cycle distribution (PI), apoptosis and TRAP status in U-2 OS cells. Type of data set: cell-based, human. As to the method:
(§1) The ALT cell lines were treated with therapeutic concentrations of AZT, to determine if slippage telomeric DNA synthesis could be inhibited by AZT-TP, and thereby induce telomere shortening. Telomere length in AZT treated and untreated cell lines was measured by flow cytometry with a telomere specific peptide nucleic acid (PNA) probe. To determine cell cycle distribution, cells were stained with propidium iodide (PI).
Rate of DNA synthesis was determined by incorporation of 5-bromodeoxyuridine (BdU). […] It is important to note that changes in cell cycle distribution, DNA synthesis and telomere length were rapid and could be detected after only 10 days of AZT treatment.
Telomere length in untreated and GCV treated cells was measured by flow cytometry with a telomere-specific PNA probe as described above.
To determine cell cycle distribution, cells were stained with propidium iodide (PI).
(§2) Both telomerase positive (Hela) telomerase negative (U-2 OS) cell lines were used. Appropriate assays were performed to detect and confirm telomerase/L1RT specific activity in these cells.
(§3) The U-2 OS (osteosarcoma) and HeLa (uterine cervix) cell lines used in this study were obtained from American Type Culture Collection (Rockville, Md.). Cells were cultured in D-MEM media supplemented with 10% fetal calf serum at 37° C. in a humidified atmosphere of 5% CO2. For treatment of the cells with ACV, the media was supplemented with 3 μM of acyclovir (acyclovir, TEVA Pharm. Ind. Ltd, Israel). For treatment of the cells with GCV, the media was supplemented with 1.5 μM of GCV (Cymevene, Hoffman-La Roche). For treatment of the cells with PCV, the media was supplemented with 1.5 μM of PCV (penciclovir, Merck & Co.).
(§4) Real time TRAP assay was performed as described (Wege et al., SYBR Green real-time telomeric repeat amplification protocol for the rapid quantification of telomerase activity. Nucleic Acids Res. 2003; 31(2):E3-3). For telomere length measurement by flow cytometry, cells were stained with telomere specific FITC conjugated (C3TA2)3 PNA (Applied Biosystems) probe and contrastained with 0.06 μg/ml PI as described by Rufer, N., Dragowska, W., Thornbury G., Roosnek, E., Lansdorp P. M. Telomere length dynamics in human lymphocyte subpopulations […]. Nat. Biotechnol. 16, 743-747 (1998)).
(a) In vitro arrays: U-2 OS cells were incubated with 0.2 μM of AZT for 22 days. Actively growing clones were analyzed by flow-FISH with telomere specific PNA probe, and in real time TRAP assay using HeLa cells as positive control. Isolated actively growing clones were different from parental cells in DNA content and telomere length.
(§5) Telomere length in SN 1 or SN 2 treated and untreated cell lines was measured by flow cytometry with a telomere—specific peptide nucleic acid PNA) probe. To determine cell cycle distribution, cells were stained with propidium iodide (PI).
(§6) The U-2 OS (osteosarcoma) and Hela (uterine cervix) cell lines used in this study were obtained from American Type Culture Collection (Rockville, Md.). Cells were cultured in D-MEM media supplemented with 10% fetal calf serum at 37° C. in a humidified atmosphere of 5% CO2. For treatment of the cells with SN 1 or SN 2, the media was supplemented with 1.5 μM of SN1 or SN2.
(§7) For telomere length measurement by flow cytometry, cells were stained with telomere specific FITC conjugated (C3TA2)3 PNA (Applied Biosystems) probe and contra-stained with 0.06 μg/ml PI as described by Rufer, N., Dragowska, W., Thornbury G., Roosnek, E., Lansdorp P. M. Telomere length dynamics in human lymphocyte subpopulations […]. Nat. Biotechnol. 16, 743-747 (1998)).

Data set [2] relates to HeLa cells. The data set can be described thus: Telomere length (flow cytometry, PNA probe), cell cycle distribution (PI) and apoptosis in HeLa cells. Type of data set: cell-based, human. The procedure: as §1
(§8) The origin of the cell lines are uterine cervix (HeLa) and epithelial ovarian (NuTu-19). Cells were cultured in D-MEM media supplemented with 10% fetal calf serum at 37° C. in a humidified atmosphere of 5% CO2. For treatment of the cells with GCV, the media was supplemented with 1.5 μM of GCV (Cymevene, Hoffman-La Roche). For treatment of the cells with ACV, the media was supplemented with 3 μM of Acyclovir (Acyclovir, TEVA Pharm. Ind. Id. Israel).
as §4, §2, §3, §5, §6, §7
For orientation: A flow cytometer gives signals particle by particle.

A short description of data set [3]: MTT-microtiter plate tetrazolium cytotoxicity assay. Type of data set: cell-based. To be noted: dog, MDCK (ATCC) cells; continuous exposure for 2 days; read-out: IC50 cytotoxic doses. As to the method:
(a) Cytotoxcity Assay: The cytotoxic effects of compounds of the invention was determined using pharmacological models that are well known to the art, i.e., MTT-microtiter plate tetrazolium cytotoxicity Assay. Specifically, cytotoxicity assays were performed using the MIT assay procedure described in Mosmann, 1983, Rapid calorimetric assay for cellular growth and survival: application to proliferation and cytotoxicity assays, J Immunol Methods, 65:55-63. Briefly, the assay was performed by using 96-well microtiter plates plated at 10^4 MDCK (ATCC) cells/well, in […] of growth medium.
For determination of IC50 cells were exposed continuously for 2 days to varying concentrations of SN1, SN2, SN3, SN4 and valine ester of SN1. MIT assays were performed at the end of the 2nd day. […] All assays were performed at least 2 times in 3 replicate wells.

The test system of data set [4] is HeLa cells. Type of data set: in vivo. The conditions noted are these: Valcyte in drinking water (1 mg/ml) from day 0. As to the method: For in vivo assay, appropriate host, e.g., nude (nu/nu) mice of about 5-7 weeks old are obtained and maintained in pathogen-free conditions. Approximately, 1×10^6 HeLa cells (and/or U-2 OS cells) contained in 200 μl of serum-free media are delivered to all animals, briefly anaesthetize with Metofane, by subcutaneous (s.c.) injection in flank. Then the mice are divided into experimental group and control group. Appropriate concentrations of compounds of the formulas (I) to (VI), ACV, PCV and/or GCV are used for tumor growth progression or regression assays.
In one embodiment, impairment of s.c. tumor growth or time to progression rather than decrease in size of an established tumor (regression) is assessed. In this embodiment, starting from the day zero, mice in the experimental group receive GCV in drinking water ad libitum. Concentration of GCV in water can be 2 mg/ml. Fresh solution of GCV is supplied every 3 days. Mice in the control group receive only drinking water. Tumors are measured every 2-3 days. Mice are sacrificed when tumors exceed 1 cm^3. Tumor volume is calculated with formula 4/3πr^3, where r is the radius of the tumor.
Experimental group received valganciclovir in drinking water from day 0. Human cancer HeLa cell culture was purchased from ATCC. In all, 12 CD1/-nu and 12 NMRiI/-nu nude mice were purchased from Charles River Laboratories, Charles River Deutschland GmbH. These nude mice were injected s.c. with 3×10^5 Hela cells. Mice in the experimental groups (6 mice per strain) were exposed to Valcyte® (val-ganciclovir) in drinking water (1 mg/ml) from day 0.
(a) In vivo assays using Valganciclovir and zidovudine (AZT) combination: Human cancer HeLa cell culture was purchased from ATCC. A total of 24 CD1/-nu nude mice were purchased from Charles River laboratories, Charles River Deutschland GmbH. These mice were injected s.c. with 1×10^5 HeLa cells. The tumor volumes were determined by measurement of maximal and minimal diameters of the tumor. The calculations were conducted using the formula V=4/3 πRmax×Rmin^2, where Rmax−½ of maximal diameter of the tumor, and Rmin−½ of minimal diameter of the tumor. nude mice were injected s.c. with 1×10^5 Hela cells.
Of the 12 treated mice, after 20 days of double cocktail treatment, six mice were administered with a triple cocktail (Valcyte®+Retrovir®+ddI at the dose of 1 mg/ml each in drinking water for a further period 21 days (see Example 7 below) and only six mice continued to receive the double cocktail for another 21 days at which time tumor measurements were taken for all mice injected with HeLa cells. Of the remaining 12 mice injected with HeLa cells but untreated with any cocktail or anticancer agent thus far, six were maintained as controls for the rest of the duration of the experiment. The other six were treated with Xeloda® 67 days after the injection of HeLa cells (see Example 7 below).
As mentioned in Example 5 above, a total of six mice, after 20 days of double cocktail treatment, were administered with a triple cocktail (Valcyte®+Retrovir®+ddI at the dose of 1 mg/ml each in drinking water) for a further period 21 days. After 14 days of triple cocktail treatment, Xeloda® at a concentration 1 mg/ml was added to the triple cocktail. Six mice previously untreated with any drug for 67 days after the injection of HeLa cells were treated with Xeloda® at a concentration 1 mg/ml in drinking water. Tumor measurements were taken in all mice 75 days following the injection of HeLa cells.

Data set [5] deals with NuTu-19 cells. Description: Telomere length (flow cytometry, PNA probe), cell cycle distribution (PI) and apoptosis in NuTu-19 cells. It counts as cell-based. The conditions noted are these: GCV 1.5 μM or ACV 3.0 μM, 14 days (Example 2b). As to the method: as §8, §4
Data set [6] relates to U-2 OS cells. The conditions noted are these: therapeutic concentrations, 14 days; reported in WO 2005/069880; cited from earlier work.
Data set [7] concerns Saos-2 osteosarcoma cells. The conditions noted are these: therapeutic concentrations, 14 days; reported in WO 2005/069880; cited from earlier work.
Where [8] appears, read: ACV 3.0, GCV 1.5 μM or PCV 1.5 μM, 10 and 14 days (Example 2c).
Setting [9] is: GCV 1.5 μM or ACV 3.0 μM, 14 days (Example 2b).

As usually defined, the IC50 is the midpoint of a concentration-inhibition curve. For orientation: melting point means the temperature of the solid-liquid transition.

In the case of `Nc1nc2c(ncn2CCC(CO)CO)c(=O)[nH]1` [PCV], the “telomere length, apoptosis and cell cycle distribution” value in data set [1] (setting [8]) is “telomere shortening, massive apoptosis and G2 arrest”; in data set [2] (setting [8]), “telomere shortening, massive apoptosis and G2 arrest”.

For the molecule `Nc1ncnc2c1ncn2COC(CO)CO` [SN4, 9-[(1,3-Dihydroxy-2-propoxy)methyl]-adenine], the half-maximal inhibitory concentration (IC50) at 2 days in data set [3] is more than 1000 µg/mL.

For `CC(C)[C@H](N)C(=O)OCC(CO)OCn1cnc2c(=O)nc(N)[nH]c21` (stereo partly drawn) [Valcyte®], in data set [4], the “tumor growth in the other treated mice” value was “slowing of tumor growth”. The tumor development entry in data set [4] (about 14 days) is “All mice in control and treated groups had developed tumors”. Also, in data set [4] (by about day 30), the “mice in which the tumor regressed and was eliminated by monotherapy” value is “one”.

As for `Cc1cn(COCCOC(=O)[C@@H](N)C(C)C)c(=O)[nH]c1=O` [VSN1, 2-[(5-Methyluracil-1-yl)methoxy]-ethyl L-valinate hydrochloride monohydrate], the IC50 at 2 days in data set [3] was more than 1000 µg/mL.

`Nc1ncnc2c1ncn2COCCO` [SN2, 9-[(2-Hydroxyethoxy)methyl]-adenine]: in data set [2] (SN 1 or SN 2 1.5 μM, 14 days), the “telomere length, apoptosis and cell cycle distribution” value was “telomere shortening, massive apoptosis and G2 arrest”. Besides, in data set [3], the IC50 at 2 days is 750 µg/mL (≈ 3.58 mM).

Take `Nc1nc2c(ncn2COCCO)c(=O)[nH]1` [ACV, 9-[2(hydromethoxy)-methyl]guanine]: the “telomere length, apoptosis and cell cycle distribution” value in data set [1] (setting [8]) is “telomere shortening, massive apoptosis and G2 arrest”; in data set [2] (setting [8]), “telomere shortening, massive apoptosis and G2 arrest”; in data set [2] (setting [9]) it was “telomere shortening, massive apoptosis and G2 arrest”; in data set [5], “telomere shortening, massive apoptosis and G2 arrest”.

The molecule `Cc1cn(COC(CO)CO)c(=O)[nH]c1=O` [SN3, 1-[(1,3-Dihydroxy-2-propoxy)methyl]-5-methyluracil] showed a melting point of 156 to 157 °C. In addition, in data set [3], the IC50 at 2 days is more than 1000 µg/mL.

On to `Nc1nc(O)c2ncn(COC(CO)CO)c2n1` [GCV], for which the “telomere length, apoptosis and cell cycle distribution” value was “telomere shortening, massive apoptosis and G2 arrest” in data set [1] (setting [8]); “telomere shortening, massive apoptosis programmed cell death) and G2 arrest” in data set [1] (GCV 0.3 μg/ml, 14 days); “telomere shortening, massive apoptosis and G2 arrest” in data set [2] (setting [8]); “telomere shortening, massive apoptosis and G2 arrest” in data set [2] (setting [9]); “telomere shortening, massive apoptosis and G2 arrest” in data set [5]. Also, the “telomere length, cell cycle and apoptosis” value in data set [6] was “telomere shortening, G2 arrest and massive apoptosis”; in data set [7], “telomere shortening, G2 arrest and massive apoptosis”.

As to `Cc1cn(COCCO)c(=O)[nH]c1=O` [SN1, 1-[(2-Hydroxyethoxy)methyl]-5-methyluracil], the “telomere length, apoptosis and cell cycle distribution” value in data set [2] (SN 1 or SN 2 1.5 μM, 14 days) is “telomere shortening, massive apoptosis and G2 arrest”. The IC50 at 2 days in data set [3] is 750 µg/mL (≈ 3.75 mM).
